In patent US11718614B2, “Compounds and methods for treatment of hedgehog pathway associated conditions” (Suzhou Mednes Pharma Tech Co., Ltd., priority 2018, dated 2023):

Each molecule was assayed on tumor cells from medulloblastoma developed from mice with deficiency in Patched1 gene (assay: MB assay: survival of medulloblastoma tumor cells by MTT after 48 hours). Settings: Mus musculus, tumor cells treated 48 hours, cell survival by MTT.
Type: cell-based
Experimental: To test the effect of the novel compounds on the proliferation of tumor cell, we isolated tumor cells from medulloblastoma developed from mice with deficiency in Patched1 gene. Tumor cells were plated in vitro as previously described, and treated with various concentration of compounds for 48 hours. Tumor cells cultured were then harvested to measure cell survival based on MTT assay. The IC50 value for each compound was calculated using Prism the statistical software.
Table 1 below summarizes the IC50 data obtained using MB assay for exemplary compounds of the invention. IC50 values are shown as A, B, C, or D. A represents IC50 value between 1.0 μM and 5.0 μM; B is between 5.0 μM and 10 μM; C is between 10 μM to 20 μM; and D indicates greater than 20 μM.

| Molecule | IC50 |
| --- | --- |
| CC(C)c1ccc2c(c1)c(C(=O)C1CCC1)c(CC(C)(C)C(=O)O)n2Cc1ccc(Cl)cc1 [Compound 1, 3-(1-(4-chlorobenzyl)-3-(cyclobutanecarbonyl)-5-isopropyl-1H-indol-2-yl)-2,2-dimethylpropanoic acid] | 1 to 5 µM |
| CCOC(=O)C(C)(C)Cc1c(C(=O)C2CCC2)c2cc(C(C)C)ccc2n1Cc1ccc(Cl)cc1 [Compound 2, ethyl 3-(1-(4-chlorobenzyl)-3-(cyclobutanecarbonyl)-5-isopropyl-1H-indol-2-yl)-2,2-dimethylpropanoate] | > 20 µM |
| CC(C)c1ccc2c(c1)c(SCC(C)(C)C)c(CC(C)(C)C(=O)O)n2Cc1ccc(Cl)cc1 [Compound 3] | 1 to 5 µM |
| CCOC(=O)C(C)(C)Cc1c(SCC(C)(C)C)c2cc(C(C)C)ccc2n1Cc1ccc(Cl)cc1 [Compound 4, ethyl 3-(1-(4-chlorobenzyl)-5-isopropyl-3-(neopentylthio)-1H-indol-2-yl)-2,2-dimethylpropanoate] | > 20 µM |
| CC(C)c1ccc2c(c1)c([S+]([O-])CC(C)(C)C)c(CC(C)(C)C(=O)O)n2Cc1ccc(Cl)cc1 (stereo not drawn) [Compound 5] | > 20 µM |
| CCOC(=O)C(C)(C)Cc1c([S+]([O-])CC(C)(C)C)c2cc(C(C)C)ccc2n1Cc1ccc(Cl)cc1 (stereo not drawn) [Compound 6] | 10 to 20 µM |
| CC(C)c1ccc2c(c1)c(S(=O)(=O)CC(C)(C)C)c(CC(C)(C)C(=O)O)n2Cc1ccc(Cl)cc1 [Compound 7] | 10 to 20 µM |
| CCOC(=O)C(C)(C)Cc1c(S(=O)(=O)CC(C)(C)C)c2cc(C(C)C)ccc2n1Cc1ccc(Cl)cc1 [Compound 8] | 10 to 20 µM |
| CC(C)C(=O)c1c(CC(C)(C)C(=O)O)n(Cc2ccc(Cl)cc2)c2ccc(C(C)C)cc12 [Compound 9, 3-(1-(4-chlorobenzyl)-3-isobutyryl-5-isopropyl-1H-indol-2-yl)-2,2-dimethylpropanoic Acid] | 10 to 20 µM |
| CCOC(=O)C(C)(C)Cc1c(C(=O)C(C)C)c2cc(C(C)C)ccc2n1Cc1ccc(Cl)cc1 [Compound 10, Ethyl 3-(1-(4-chlorobenzyl)-3-isobutyryl-5-isopropyl-1H-indol-2-yl)-2,2-dimethylpropanoate] | > 20 µM |
| CC(C)c1ccc2c(c1)c(SC(C)(C)C)c(CCC(=O)O)n2Cc1ccc(Cl)cc1 [Compound 11, 3-(3-(tert-butylthio)-1-(4-chlorobenzyl)-5-isopropyl-1H-indol-2-yl) Propanoic Acid] | 5 to 10 µM |
| CCOC(=O)CCc1c(SC(C)(C)C)c2cc(C(C)C)ccc2n1Cc1ccc(Cl)cc1 [Compound 12] | > 20 µM |
| CC(C)c1ccc2c(c1)c(SC(C)(C)C)c(CC(=O)O)n2Cc1ccc(Cl)cc1 [Compound 13, 2-(3-(tert-butylthio)-1-(4-chlorobenzyl)-5-isopropyl-1H-indol-2-yl) Acetic Acid] | 10 to 20 µM |
| COC(=O)Cc1c(SC(C)(C)C)c2cc(C(C)C)ccc2n1Cc1ccc(Cl)cc1 [Compound 14, methyl 2-(3-(tert-butylthio)-1-(4-chlorobenzyl)-5-isopropyl-1H-indol-2-yl)acetate] | > 20 µM |
| CC(C)c1ccc2c(c1)c(SC(C)(C)C)c(CC(C)(C)C)n2Cc1ccc(Cl)cc1 [Compound 15] | > 20 µM |
| CC(C)c1cnc2c(c1)c(C(=O)C1CCC1)c(CC(C)(C)C(=O)O)n2Cc1ccc(Cl)cc1 [Compound 16, 3-(1-(4-chlorobenzyl)-3-(cyclobutanecarbonyl)-5-isopropyl-1H-pyrrolo-[2,3-b]pyridin-2-yl)-2,2-dimethylpropanoic acid] | 10 to 20 µM |
| COc1cnc2c(c1)c(SC(C)(C)C)c(CC(C)(C)C(=O)O)n2Cc1ccc(Cl)cc1 [Compound 17] | > 20 µM |
| CCOC(=O)C(C)(C)Cc1c(SC(C)(C)C)c2cc(OC)cnc2n1Cc1ccc(Cl)cc1 [Compound 18] | > 20 µM |
| CC(C)(C)CC(=O)c1c(CC(C)(C)C(=O)O)n(Cc2ccc(Cl)cc2)c2ccc(O)cc12 [Compound 19] | > 20 µM |

| Molecule | IC50 |
| --- | --- |
| CC(C)(C)CCc1c(CC(C)(C)CO)n(Cc2ccc(Cl)cc2)c2ccc(O)cc12 [Compound 20] | 1 to 5 µM |
| COC(=O)C(C)(C)Cc1c(C(=O)CC(C)(C)C)c2cc(OC)ccc2n1Cc1ccc(Cl)cc1 [Compound 21] | > 20 µM |
| COc1ccc2c(c1)c(C(=O)CC(C)(C)C)c(CC(C)(C)C(=O)O)n2Cc1ccc(Cl)cc1 [Compound 22] | > 20 µM |
| COc1ccc2c(c1)c(C(=O)CC(C)(C)C)c(CC(C)(C)CO)n2Cc1ccc(Cl)cc1 [Compound 23] | 5 to 10 µM |
| COC(=O)C(C)(C)Cc1c(C(=O)CC(C)(C)C)c2cc(O)ccc2n1Cc1ccc(Cl)cc1 [Compound 24] | 1 to 5 µM |
| CC(C)(C)CC(=O)c1c(CC(C)(C)CO)n(Cc2ccc(Cl)cc2)c2ccc(O)cc12 [Compound 25] | > 20 µM |
| COc1ccc2c(c1)c(CCC(C)(C)C)c(CC(C)(C)CO)n2Cc1ccc(Cl)cc1 [Compound 26] | 1 to 5 µM |
| CC(C)c1ccc2c(C(=O)c3ccc(Cl)cc3)c(CC(C)(C)C(=O)O)n(CC3CCC3)c2c1 [Compound 27] | 5 to 10 µM |
| COC(=O)C(C)(C)Cc1c(C(=O)c2ccc(Cl)cc2)c2ccc(C(C)C)cc2n1CC1CCC1 [Compound 28, methyl 3-(3-(4-chlorobenzoyl)-1-(cyclobutylmethyl)-6-isopropyl-1H-indol-2-yl)-2,2-dimethylpropanoate] | > 20 µM |
| CC(C)(Cc1c(C(=O)c2ccc(Cl)cc2)c2ccc(O)cc2n1CC1CCC1)C(=O)O [Compound 29, 3-(3-(4-chlorobenzoyl)-1-(cyclobutylmethyl)-6-hydroxy-1H-indol-2-yl)-2,2-dimethylpropanoic Acid] | > 20 µM |
| CCOC(=O)C(C)(C)Cc1c(C(=O)c2ccc(Cl)cc2)c2ccc(O)cc2n1CC1CCC1 [Compound 30, Ethyl 3-(3-(4-chlorobenzoyl)-1-(cyclobutylmethyl)-6-hydroxy-1H-indol-2-yl)-2,2-dimethylpropanoate] | > 20 µM |
| COc1ccc2c(c1)c(SC(C)(C)C)c(CC(C)(C)c1nc(C)co1)n2Cc1ccc(Cl)cc1 [Compound 31] | > 20 µM |
| Cc1coc(C(C)(C)Cc2c(SC(C)(C)C)c3cc(O)ccc3n2Cc2ccc(Cl)cc2)n1 [Compound 32] | 1 to 5 µM |
| CCc1noc(C(C)(C)Cc2c(SC(C)(C)C)c3cc(OC)ccc3n2Cc2ccc(Cl)cc2)n1 [Compound 33] | > 20 µM |
| CCc1noc(C(C)(C)Cc2c(SC(C)(C)C)c3cc(O)ccc3n2Cc2ccc(Cl)cc2)n1 [Compound 34] | 5 to 10 µM |
| COc1ccc2c(c1)c(SC(C)(C)C)c(CC(C)(C)c1nnnn1C)n2Cc1ccc(Cl)cc1 [Compound 35, 3-(tert-butylthio)-1-(4-chlorobenzyl)-5-methoxy-2-(2-methyl-2-(1-methyl-1H-tetrazol-5-yl)propyl)-1H-indole] | 5 to 10 µM |
| COc1ccc2c(c1)c(SC(C)(C)C)c(CC(C)(C)c1nnn(C)n1)n2Cc1ccc(Cl)cc1 [Compound 36, 3-(tert-butylthio)-1-(4-chlorobenzyl)-5-methoxy-2-(2-methyl-2-(2-methyl-2H-tetrazol-5-yl)propyl)-1H-indole] | 5 to 10 µM |
| Cn1nnnc1C(C)(C)Cc1c(SC(C)(C)C)c2cc(O)ccc2n1Cc1ccc(Cl)cc1 [Compound 37, 3-(tert-butylthio)-1-(4-chlorobenzyl)-2-(2-methyl-2-(1-methyl-1H-tetrazol-5-yl)propyl)-1H-indol-5-ol] | 10 to 20 µM |
| COc1ccc2c(c1)nc(C(C)c1ccc(Br)cc1)n2Cc1ccccc1Cl (stereo not drawn) [Compound 39] | 5 to 10 µM |

| Molecule | IC50 |
| --- | --- |
| COc1ccc2c(c1)nc(C(C)c1ccc(C#N)cc1)n2Cc1ccccc1Cl (stereo not drawn) [Compound 40] | > 20 µM |
| COc1ccc2c(c1)nc(C(C)c1ccc(C(=O)O)cc1)n2Cc1ccccc1Cl (stereo not drawn) [Compound 41] | > 20 µM |
| COC(=O)c1ccc(C(C)c2nc3cc(OC)ccc3n2Cc2ccccc2Cl)cc1 (stereo not drawn) [Compound 42] | > 20 µM |
| COc1ccc2c(c1)nc(C(C)c1ccc(CO)cc1)n2Cc1ccccc1Cl (stereo not drawn) [Compound 43] | > 20 µM |
| COc1ccc2c(c1)nc(C(C)c1ccc(CC#N)cc1)n2Cc1ccccc1Cl (stereo not drawn) [Compound 44] | > 20 µM |
| COc1ccc2c(c1)nc(C(C)c1ccc(CC(=O)O)cc1)n2Cc1ccccc1Cl (stereo not drawn) [Compound 45] | > 20 µM |
| COC(=O)Cc1ccc(C(C)c2nc3cc(OC)ccc3n2Cc2ccccc2Cl)cc1 (stereo not drawn) [Compound 46] | 10 to 20 µM |
| COc1ccc2c(c1)nc(C(C)c1ccc(CCO)cc1)n2Cc1ccccc1Cl (stereo not drawn) [Compound 47] | > 20 µM |
| COc1ccc2c(c1)cc(C(C)c1ccc(CC(C)C)cc1)n2Cc1cccc(Cl)c1 (stereo not drawn) [Compound 48] | > 20 µM |
| CC(C)Cc1ccc(C(C)c2cc3cc(O)ccc3n2Cc2cccc(Cl)c2)cc1 (stereo not drawn) [Compound 49] | 1 to 5 µM |
| COc1ccc2c(c1)nc(-c1ccc(CC(C)C)cc1)n2Cc1ccccc1Cl [Compound 50] | 10 to 20 µM |
| CC(C)Cc1ccc(-c2nc3cc(O)ccc3n2Cc2ccccc2Cl)cc1 [Compound 51] | 5 to 10 µM |
| CC(C)Cc1ccc(C(C)c2nc3cc(Br)ccc3n2Cc2ccccc2Cl)cc1 (stereo not drawn) [Compound 52] | > 20 µM |
| CC(C)Cc1ccc(C(C)c2nc3cc(C(=O)O)ccc3n2Cc2ccccc2Cl)cc1 (stereo not drawn) [Compound 53] | 10 to 20 µM |
| COc1ccc2c(c1)c(-c1ccc(CC(C)C)cc1)c(C)n2Cc1ccccc1Cl [Compound 54] | > 20 µM |
| Cc1c(-c2ccc(CC(C)C)cc2)c2cc(O)ccc2n1Cc1ccccc1Cl [Compound 55] | 1 to 5 µM |
| COc1ccc2c(c1)c(-c1ccc(CC(C)C)cc1)cn2Cc1ccccc1Cl [Compound 56, 1-(2-chlorobenzyl)-3-(4-isobutylphenyl)-5-methoxy-1H-indole] | > 20 µM |
| COc1ccc2c(c1)nc(CC(C)(C)C(=O)O)n2Cc1ccccc1Cl [Compound 57] | > 20 µM |

Same assay, conditions: tumor cells treated 48 hours, cell survival by MTT

| Molecule | IC50 |
| --- | --- |
| 3-(tert-butylthio)-1-(4-chlorobenzyl)-2-(2-methyl-2-(2-methyl-2H-tetrazol-5-yl)propyl)-1H-indol-5-ol [Compound 38] | 1 to 5 µM |
